This test deals with T1, maize (Zea mays) class I EPSPS variant TIPC (T102I, P106C), pMON42485 (Zea mays, UniProt O24566, P106C/T102I).
T1 sequence (O24566 1-444 T102I/P106C): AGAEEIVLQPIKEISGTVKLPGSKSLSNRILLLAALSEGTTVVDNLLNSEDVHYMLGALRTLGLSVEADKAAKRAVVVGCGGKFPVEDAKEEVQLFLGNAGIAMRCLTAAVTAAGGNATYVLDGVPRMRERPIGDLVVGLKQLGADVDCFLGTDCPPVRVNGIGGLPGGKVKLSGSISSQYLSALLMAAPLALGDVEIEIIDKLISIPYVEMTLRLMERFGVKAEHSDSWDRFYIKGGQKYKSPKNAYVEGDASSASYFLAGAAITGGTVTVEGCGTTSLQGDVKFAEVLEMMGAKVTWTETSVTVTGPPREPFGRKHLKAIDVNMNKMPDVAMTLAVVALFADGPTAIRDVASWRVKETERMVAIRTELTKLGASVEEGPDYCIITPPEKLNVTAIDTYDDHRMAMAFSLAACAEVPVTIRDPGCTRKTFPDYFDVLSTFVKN
Kind of test: EPSPS steady-state kinetics, TIPC variant. The source says:
The double variants of the present invention were made using pMON58452 (FIG. 5) as the template. This pMON58452 EPSPS gene template contains the maize EPSPS double variant T102I, P106T (TIPT) that was constructed by mutagenesis of pMON70467 with the mutagenesis primers mEmut-9-U and mEmut-10-L. The various mutagenesis primer sequences were designed and then were synthesized by Invitrogen Corp., Custom Primers and used in combination in a PCR to create the variant EPSPS coding sequences. The PCR was set up in a 50 μl reaction in the following manner: dH2O 38 μl; 2 mM dNTP 1 μL; 10× buffer 5 μL; pMON58452 1 μL (10 ng); primer-U 2 μL; primer-L 2 μL; pfu Turbo enzyme 1 μL. PCR was carried out on a MJ Research PTC-200 thermal cycler using the following program: Step 1—94° C. for 30 seconds; Step 2—94° C. for 30 seconds; Step 3—55° C. for 1 minute; Step 4—68° C. for 14 minute; Step 5—go to step 2, 16 times; Step 6—End. At the end of the PCR, 1 μl of the restriction enzyme DpnI was added to each 50 μl of PCR reaction and the mixture was incubated at 37° C. for 1 hour. […]

Each structure is given as a SMILES string.

In general, Ki refers to a dissociation constant, usually derived from enzyme kinetics or from competition with a known ligand. `O=C(O)CNCP(=O)(O)O` [glyphosate, N-phosphonomethylglycine]: the Ki amounted to 818 ± 74.4 µM.

The record behind these values is patent US8436159B2, “Glyphosate resistant class I 5-endolpyruvylshikimate-3-phosphate synthase (EPSPS)” (Monsanto Technology LLC, priority 2003, dated 2013).
